The source of these data is publication PMC12448638, “The association between diet estrogenicity in exotic felids and poor spermatozoa quality in tigers (Panthera tigris)” (Biology of Reproduction, 2025).

What all share (assay): 3xERE luciferase reporter activation, HEK293
One assay concerns the target T1, SL ERβ (Panthera uncia, UniProt Z9GFH5XYU7).
T1 construct: full-length ESR2 ORF (1653 bp, about 550 aa), not codon-optimised, pcDNA3.1+, HEK293; residues S31, S40, I138, A147, G361, R433, Q550
It is filed as cell-based. The following applies: agonist; 24 h, 37 °C; normalised to β-gal and maximal E2 activation; read-out: SL ER⍺ / EC50.

Another assay has as its system T2, ST ERβ.
T2 construct: gene ESR2; full-length ESR2 ORF (1653 bp, about 550 aa), codon-optimised, pcDNA3.1+, HEK293; residues S31, S40, V138, A147, E361, R433, E550
It is filed as cell-based, Panthera tigris sumatrae. The following applies: agonist, 24 h, 37 °C.

The target of the next assay is T3, ST ERα (Panthera tigris, UniProt Z9XQL7S1Y6).
T3 construct: full-length ESR1 ORF (1788 bp, about 595 aa), codon-optimised, pcDNA3.1+, HEK293; residues S53, P76, T496, S585
T3 sequence (Z9XQL7S1Y6 1-595): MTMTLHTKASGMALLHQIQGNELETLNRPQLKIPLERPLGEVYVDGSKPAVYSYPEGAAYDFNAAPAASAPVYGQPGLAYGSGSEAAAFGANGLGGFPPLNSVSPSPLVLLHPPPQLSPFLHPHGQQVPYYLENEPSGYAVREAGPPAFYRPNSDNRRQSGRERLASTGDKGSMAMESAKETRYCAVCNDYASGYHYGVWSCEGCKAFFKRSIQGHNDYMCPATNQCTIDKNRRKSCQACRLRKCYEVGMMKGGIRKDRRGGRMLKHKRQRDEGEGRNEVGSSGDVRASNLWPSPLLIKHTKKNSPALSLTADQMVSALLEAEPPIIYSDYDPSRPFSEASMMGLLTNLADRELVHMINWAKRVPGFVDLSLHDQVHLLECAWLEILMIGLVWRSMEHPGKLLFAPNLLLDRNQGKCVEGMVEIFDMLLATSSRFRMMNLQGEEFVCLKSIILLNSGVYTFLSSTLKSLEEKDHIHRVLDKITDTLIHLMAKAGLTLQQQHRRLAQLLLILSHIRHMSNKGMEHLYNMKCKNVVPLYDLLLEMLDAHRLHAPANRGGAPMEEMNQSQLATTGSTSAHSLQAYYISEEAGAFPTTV
In kind it is cell-based.

The subject of the next assay is T4, SL ERα.
T4 construct: gene ESR1; full-length ESR1 ORF (1788 bp, about 595 aa), codon-optimised, pcDNA3.1+, HEK293; residues S53, S76, T496, T585
It is filed as cell-based, Panthera uncia. To be noted: agonist, 24 h, 37 °C, corrected for constitutive activity.

Setting [1] is: normalised to β-gal and maximal E2 activation, read-out: ST ER⍺ / EC50.
[2] abbreviates: normalised to β-gal and maximal E2 activation, read-out: SL ER⍺ / EC50.
[3] abbreviates: normalised to β-gal, read-out: EC50.

Like-named read-outs stand apart in the source and are kept apart here.

As to `O=c1oc2cc(O)ccc2c2oc3cc(O)ccc3c12` [COUM, coumestrol], the EC50 at SL ERβ was determined as 26 nM; in the assay with ST ERβ (setting [1]) it was 8.17 nM; on ST ERα (read-out: ST ER⍺ / EC50), 131 nM; in the assay with SL ERα (setting [2]), 41.3 nM.

As to `O=c1c(-c2ccc(O)cc2)coc2cc(O)ccc12` [DAID, daidzein], in the assay on ST ERβ (setting [1]), the EC50 came to 793 nM.

On to `C[C@]12CC[C@@H]3c4ccc(O)cc4CC[C@H]3[C@@H]1CC[C@@H]2O` [E2, 17β-estradiol], for which the EC50 amounted to 0.041 nM in the assay with ST ERβ (setting [3]), 0.00611 nM on ST ERα (read-out: EC50) and 0.00969 nM with SL ERα (setting [3]).

Consider `O=c1c(-c2ccc(O)cc2)coc2cc(O)cc(O)c12` [GEN, genistein], for which the EC50 at SL ERβ came out at 291 nM; in the assay with ST ERβ (setting [1]) it was 22.3 nM; on ST ERα (read-out: ST ER⍺ / EC50), 1890 nM; in the assay with SL ERα (setting [2]), 1670 nM.
